Data on ten molecules can be found in paper PMC5405074, “Receptor-Mediated Melanoma Targeting with Radiolabeled α-Melanocyte-Stimulating Hormone: Relevance of the Net Charge of the Ligand” (Frontiers in Endocrinology, 2017).

“Also recorded” adds a separate entry of the source. Where two headings read alike, the source gives them in different places. Non-standard residues stand in square brackets, D forms with d. Residues, ends and D or L forms follow the SMILES beside them. *: point of attachment. DOTA = O=C(O)CN1CCN(CC(=O)O)CCN(CC(=O)*)CCN(CC(=O)O)CC1; pY = N[C@@H](Cc1ccc(OP(=O)(O)O)cc1)C(=O)O; Nle = CCCC[C@H](N)C(=O)O

The conditions of series [1]: cited from earlier work. The source says: Another approach to reduce uptake of radioactivity by the kidneys is coinjection of radiopeptides with basic amino acids. […] This method was first applied for ^111In-labeled DTPA-octreotide ([31], [32]) and ^90Y-labeled DOTA-[Tyr^3]-octreotide ([32], [33]).
The nature of series [2]: Biodistribution of ^111In-labeled peptides in B16-F1 melanoma-bearing mice. It is filed as in vivo, mouse (B6D2F1). Particulars: female, iv, total radioactivity; for tissue to tissue ratio at 24 h / tissue to tissue ratio at 48 h: B6D2F1 (C57BL/6 × DBA/2F1 hybrids), mouse; for tissue to tissue ratio at 24 h / tissue to tissue ratio at 48 h / tissue to tissue ratio at 4 h: 185 kBq, mean tumor uptake divided by mean kidney uptake; for tissue to tissue ratio at 24 h: 24 h postinjection; for tissue to tissue ratio at 48 h: 48 h postinjection; for tissue to tissue ratio at 4 h / tissue uptake at 4 h: B6D2F1, mouse; for tissue to tissue ratio at 4 h: 4 h postinjection; for tissue uptake at 4 h: ^111In-labeled peptide, 185 kBq i.v., mean ± SEM of three experiments, n = 5 animals each. On the procedure: (§1) About 5 × 10^5 B16-F1 cells were implanted subcutaneously to female B6D2F1 mice (C57BL/6 × DBA/2F1 hybrids; breeding pairs obtained from IFFA-CREDO, France). Seven days later, 185 kBq of ^111In-labeled ligand in 200 µL PBS/0.1% BSA were injected intravenously into the lateral tail vein of each mouse. Control mice were injected with a mixture of the tracer and 50 µg α-MSH to determine the non-specific uptake of radioligand. The animals were sacrificed 4, 24, and 48 h postinjection, dissected, and the tissues of interest collected, rinsed of excess blood, and weighed. The radioactivity emitted by each organ was measured in a γ-counter to determine the tissue uptake as percentage of the injected dose (ID) per gram of tissue. The total of injected radioactivity per animal was determined by extrapolation from the counts of a standard collected from the injection solution for each animal. Urine samples were collected at 10, 15, and 20 min and 4 h after injection and kept frozen at −80°C until use. Urine (1 vol) was mixed with methanol (2 vol) to precipitate proteins, and the supernatant was analyzed by RP-HPLC/γ-detection, as described in Ref. ([12]).
(§2) Results are expressed as means ± SEM, unless otherwise stated. The statistical evaluation of data was performed using the one- or two-way ANOVA test. When significant overall effects were obtained by ANOVA, multiple comparisons were made with the Bonferroni correction. P < 0.05 was considered statistically significant. The area under the curve (AUC) was calculated with the GraphPad Prism 6 software for the indicated period of time, using the mean tissue uptake value at each time point.

The test system of series [3] is B16-F1 tumor-bearing mice. Described as above. Format: in vivo, mouse (B6D2F1). Here is the method:
as §1, §2

A further series deals with B16-F1 cells. The series is described as follows: Internalization by cultured B16-F1 cells. It is filed as cell-based, mouse. Here is the method:
B16-F1 cells were seeded in six-well plates and incubated overnight in MEM at 37°C. For the internalization experiments, MEM was replaced by 1 mL MBM (see above) as internalization buffer. After a 1-h incubation at 37°C, 74 kBq of radioligand (^111In-labeled peptides) was added, and the plates were incubated for different time periods. Non-specific internalization was determined by addition of 50 µL of a 1 µM α-MSH solution to the incubation mixture. After the desired incubation times, the cells were extensively washed with MBM kept at 37°C to remove excess radioligand. Incubation in 2 mL ice-cold acid buffer (acetate-buffered Hank’s balanced salt solution, pH 5) for 10 min allowed dissociation of surface-bound ligand. After collection of the acid buffer fraction, the cells were rinsed once with cold MBM, and the washings were pooled with the acid buffer fraction. The cells were washed again with MBM kept at 37°C, lysed in a 1% Triton X-100 solution, and finally transferred to tubes for quantification. The radioactivity of all collected fractions was measured in a γ-counter. A counting plate underwent the same treatment as the plate incubated for the longest time, but its cells were detached with 0.02% EDTA in PBS instead of being lysed with the Triton X-100 solution. Cells from three wells were collected, counted, and thus allowed for normalization of the results obtained. Results were expressed as percent of the added dose per million cells.
Figure 3 Determination of internalization of [^111In] DOTA-NAP-D-Asp-D-Asp (A) and [^111In]DOTA-Phospho-MSH2-9 (B) by cultured B16-F1 cells exposed to the peptides at 37°C for 0.5, 2, and 3.5 h. Surface-bound radioligand was released by an acid buffer wash, and internalized radioligand was determined by lysing cells with detergent. Results are expressed in percent of the added dose per million cells.

For series [4] the following is noted: cited from earlier work. This is another data set of the same source.
The subject of the next series is MC1R. The note with it: cited from earlier work.
[5] abbreviates: kidney, read-out: Kidney uptake.

Turning to `NCCCC[C@@H](N)C(=O)O` [D-Lys], in series [1], the “Effect of coinjection on tumor uptake (in words)” value is “without affecting tumor uptake”. Besides, the “Reduction of kidney uptake of radiopeptides by coinjection” value in series [1] (coinjected with ^111In-/^90Y-labeled octreotide peptides) is recorded as “up to 65%”.

As for `CCCC[C@H](NC(C)=O)C(=O)N[C@@H](CC(=O)O)C(=O)N[C@@H](Cc1c[nH]cn1)C(=O)N[C@H](Cc1ccccc1)C(=O)N[C@@H](CCCNC(=N)N)C(=O)N[C@@H](Cc1c[nH]c2ccccc12)C(=O)NCC(=O)N[C@@H](CCCCNC(=O)CN1CCN(CC(=O)O)CCN(CC(=O)O)CCN(CC(=O)O)CC1)C(=O)N[C@H](CC(=O)O)C(=O)N[C@H](CC(=O)O)C(=O)O` [[^111In]DOTA-NAP-D-Asp-D-Asp, metal not drawn] (Ac-[Nle]DH[dF]RWGK(DOTA)[dD][dD]-OH; N-terminus and C-terminus assumed), in series [2], the tissue to tissue ratio at 24 h stood at 0.15, the tissue to tissue ratio at 48 h came to 0.11 and the tissue to tissue ratio at 4 h is 0.32. Further, in series [2] (setting [5]), the tissue uptake at 4 h is 5.95 ± 0.85 %ID/g. In addition, the tissue uptake at 4 h in series [2] (tumor, read-out: Tumor uptake) was 1.93 ± 0.11 %ID/g.

On to `CCCC[C@H](NC(C)=O)C(=O)N[C@@H](CC(=O)O)C(=O)N[C@@H](Cc1c[nH]cn1)C(=O)N[C@H](Cc1ccccc1)C(=O)N[C@@H](CCCNC(=N)N)C(=O)N[C@@H](Cc1c[nH]c2ccccc12)C(=O)NCC(=O)N[C@@H](CCCCNC(=O)CN1CCN(CC(=O)O)CCN(CC(=O)O)CCN(CC(=O)O)CC1)C(=O)N[C@H](CC(=O)O)C(=O)N[C@H](CC(=O)O)C(=O)O` [[^111In]DOTA-NAP-D-Asp-D-Asp] [metal not drawn] (Ac-[Nle]DH[dF]RWGK(DOTA)[dD][dD]-OH; N-terminus and C-terminus assumed), for which the “Uptake by other organs (in words)” value in series [3] (4–48 h) was “Other organs did not substantially accumulate the radiopeptide”. In series [3] (4 h after injection), the “Kidney uptake higher than that of [^111In]DOTA-NAP-amide” value was 25%. Further, the “Radioactive load of kidney higher than with the reference peptide” value in series [3] (24 h after injection) is on record as 70%. In the series with B16-F1 cells (37°C, 0.5, 2 and 3.5 h, 74 kBq radioligand), the “Internalization profile (in words)” value is “excellent internalization profiles”. In addition, in the series with B16-F1 cells (37°C, 3.5 h), the “Internalization plateau (in words)” value is recorded as “not quite reached”.

With `CCCC[C@H](NC(C)=O)C(=O)N[C@@H](CC(=O)O)C(=O)N[C@@H](Cc1c[nH]cn1)C(=O)N[C@H](Cc1ccccc1)C(=O)N[C@@H](CCCNC(=N)N)C(=O)N[C@@H](Cc1c[nH]c2ccccc12)C(=O)NCC(=O)N[C@@H](CCCCNC(=O)CN1CCN(CC(=O)O)CCN(CC(=O)O)CCN(CC(=O)O)CC1)C(N)=O` [[^111In]DOTA-NAP-amide, metal not drawn, reference compound], in series [2], the tissue to tissue ratio at 24 h turned out to be 0.96, the tissue to tissue ratio at 48 h amounted to 0.91 and the tissue to tissue ratio at 4 h is 1.63. Further, the tissue uptake at 4 h in series [2] (setting [5]) worked out at 4.77 ± 0.26 %ID/g. The tissue uptake at 4 h in series [2] (tumor, read-out: Tumor uptake) turned out to be 7.77 ± 0.35 %ID/g. For the same molecule, the “Metabolite in vivo (in words)” value in series [4] (4 h after injection, ref Froidevaux and Eberle, unpublished) is “Lys([^111In]DOTA), a metabolite of internalized [^111In]DOTA-NAP-amide occurring 4 h after injection”.

On to `CCCC[C@H](NC(=O)[C@H](Cc1ccc(OP(=O)(O)O)cc1)NC(=O)CNC(=O)CN1CCN(CC(=O)O)CCN(CC(=O)O)CCN(CC(=O)O)CC1)C(=O)N[C@@H](CC(=O)O)C(=O)N[C@@H](Cc1c[nH]cn1)C(=O)N[C@H](Cc1ccccc1)C(=O)N[C@@H](CCCNC(=N)N)C(=O)N[C@@H](Cc1c[nH]c2ccccc12)C(N)=O` [[^111In]DOTA-Phospho-MSH2-9, metal not drawn] ({DOTA}-G[pY][Nle]DH[dF]RW-NH2), for which, in series [2], the tissue to tissue ratio at 24 h came to 1.55, the tissue to tissue ratio at 48 h was 1.16 and the tissue to tissue ratio at 4 h is 2.75. The tissue uptake at 4 h in series [2] (setting [5]) was 2.68 ± 0.18 %ID/g. For the same molecule, the tissue uptake at 4 h in series [2] (tumor, read-out: Tumor uptake) is 7.33 ± 0.47 %ID/g.

For `CCCC[C@H](NC(=O)[C@H](Cc1ccc(OP(=O)(O)O)cc1)NC(=O)CNC(=O)CN1CCN(CC(=O)O)CCN(CC(=O)O)CCN(CC(=O)O)CC1)C(=O)N[C@@H](CC(=O)O)C(=O)N[C@@H](Cc1c[nH]cn1)C(=O)N[C@H](Cc1ccccc1)C(=O)N[C@@H](CCCNC(=N)N)C(=O)N[C@@H](Cc1c[nH]c2ccccc12)C(N)=O` [[^111In]DOTA-Phospho-MSH2-9] [metal not drawn] ({DOTA}-G[pY][Nle]DH[dF]RW-NH2), in series [3] (50 µg α-MSH coinjected, data not shown), the “Effect of coinjection of α-MSH on melanoma uptake (in words)” value is listed as “significantly blocked melanoma uptake”. In addition, in series [3] (4–48 h), the “Clearance from the kidney (in words)” value is “slightly slower”; the “Uptake by other organs (in words)” value was “very low and did not exceed the values found with [^111In]DOTA-NAP-amide”. Moreover, in series [3] (4 h after injection), the “Kidney retention lower than that of [^111In]DOTA-NAP-amide” value was determined as 44% and the “Kidney uptake as percentage of that of the reference peptide” value was 56%. Also, in series [3] (24 h postinjection, decreased to % of 4 h value), the “Retention of radioactivity by the tumor” value stood at 40%. Also, the “Tumor-to-kidney ratio compared with other peptides (in words)” value in series [3] (AUC (4–48 h) or overall comparison) is given as “threefold higher; also recorded: most favorable tumor-to-kidney ratio of a linear DOTA-MSH radiopeptide reported to date”. In series [3] (in vivo), the “Kidney uptake/retention compared with reference (in words)” value is reported as “markedly lower”. For the same molecule, the “Tumor uptake compared with reference (in words)” value in series [3] (in vivo, B16-F1 tumors) is “almost identical with that of [^111In]DOTA-NAP-amide; also recorded: about as high as for the reference compound”. Also, the “Kidney uptake compared with other peptides (in words)” value in series [3] (peptides of net charge −2 to +2, five of the eight peptides from ref 14) is “slightly lower kidney uptake than [^111In-DOTA-Nle^4,Asp^5,D-Phe^7,Lys^11(Suc)]-α-MSH4-11-carboxylate”.

For the molecule “Ac-Nle-cyclo[Asp-His-D-Phe-Arg-Trp-Lys]-NH2 (sidechain bridge or staple) [melanotan II]”, the “Binding affinity (in words)” value with MC1R (cyclic analog compared with α-MSH) is given as “increased binding affinity”.

Regarding “[DOTA-Nle^4,Asp^5,D-Phe^7,Lys^11(Suc)]-α-MSH4-11-carboxylate”, in series [4] (in vivo), the “Kidney uptake (in words)” value is reported as “reduced kidney uptake”, the “Tumor uptake (in words)” value was “tumor uptake was also affected” and the “Tumor-to-kidney ratio (in words)” value is reported as “even lower than that of the parent molecule”.

As for [Nle^4, D-Phe^7]-α-MSH [NDP-MSH], the “Binding affinity (in words)” value in the series on MC1R (linear analog compared with α-MSH) is recorded as “increased binding affinity”.

For the molecule “[^111In-DOTA-Nle^4,Asp^5,D-Phe^7,Lys^11(Suc)]-α-MSH4-11-carboxylate”, the “MC1R affinity (in words)” value with MC1R was “lower MC1R affinity”. Further, in series [4] (in vivo), the “AUC (4–48 h), tumor-to-kidney” value was 0.62; the “Kidney uptake (in words)” value was “lowest kidney uptake”; the “Tumor uptake (in words)” value is reported as “reduced uptake by melanoma tumors”.
